Test results taken from patent publication EP1108710A1, “GUAIACOXYPROPANOLAMINES WITH ALPHA/BETA-ADRENERGIC BLOCKING ACTIVITY” (Cheng, Ing-Jun, priority 1998, dated 2000).
Like-named read-outs stand apart in the source and are kept apart here.

Experiments:
[1] = system: Wistar rat's isolated; reserpine pretreated right atrium beating rate and left atrium isometric contractions; test: Direct effect (intrinsic sympathomimetic activity) on reserpine-pretreated isolated atria
Protocol: Pharmacol 311, pp. 205-218 and pp 237-248 (1980). Wistar rats of weight between 200 ∼ 300 gm were used. 18 ∼ 24 hours before the experiment, 5mg/kg of reserpine was injected via abdominal cavity to remove all endogenous catecholamines. Prior experiment, Wistar rats were sacrificed, the heart was immediately removed and placed in Kreb's solution aerated with air mixture and maintained at room temperature. The right and left atria were carefully separated.

[2] = system: guinea pig's isolated; reserpine pretreated tracheal; test: Direct effect (tracheal relaxation, intrinsic sympathomimetic activity) on reserpine-pretreated isolated trachea, with and without ICI 118,551; conditions: cumulative administration 10^-10∼3x10^-6 M, reserpine pretreated
Protocol: Pharmacol 311, pp. 205-218 and pp.237-248 (1980). guinea pigs of weight between 350 ∼ 500 gm were used. 18 ∼ 24 hours before the experiment, 5mg/kg of reserpine was injected via abdominal cavity to remove all endogenous catecholamines. Prior experiment, guinea pigs were sacrificed, the tracheal was immediately removed and placed in Kreb's solution aerated with air mixture and maintained at room temperature of 22 ∼ 25°C. […] […] Then the tissue was repeatedly washed with Kreb's solution. After the tissue had been re-equilibrated for 60 minutes, ICI 118, 551 were administed. After treatment for 30 minutes, compound 1 of similar concentration was administered, and the intrinsic sympathomimetic activity of tracheal was observed.

[3] = biological target: T1, β-adrenoreceptor (β1) (Rattus norvegicus, UniProt P18090); test: β-adrenoceptor blocking action on isolated spontaneously beating right atrium (L-isoproterenol-induced heart rate increase, Schild plot); parameters: species or system Wistar rat; conditions: from the average pA2 difference between right atrium and tracheal
T1 construct: The right and left atria were then separated; from tissue; host or cells: isolated rat right and left atria
T1 sequence (P18090 whole entry): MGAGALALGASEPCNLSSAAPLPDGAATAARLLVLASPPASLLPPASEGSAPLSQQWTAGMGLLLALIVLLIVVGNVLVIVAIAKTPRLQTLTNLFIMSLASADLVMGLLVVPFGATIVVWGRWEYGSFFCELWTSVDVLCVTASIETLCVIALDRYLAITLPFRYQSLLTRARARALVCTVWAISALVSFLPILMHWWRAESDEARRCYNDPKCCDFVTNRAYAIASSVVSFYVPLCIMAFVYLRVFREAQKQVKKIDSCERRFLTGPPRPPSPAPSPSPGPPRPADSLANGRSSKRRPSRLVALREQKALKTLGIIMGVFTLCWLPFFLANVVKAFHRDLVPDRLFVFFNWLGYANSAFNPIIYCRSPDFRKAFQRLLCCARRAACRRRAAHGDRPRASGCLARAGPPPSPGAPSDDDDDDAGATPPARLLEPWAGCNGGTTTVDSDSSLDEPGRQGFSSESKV
Protocol: The right and left atria were then separated. The spontaneously-beating right atria was clipped on both end by heart shaped clips, where one end was fixed at the bottom of 10ml of tissue bath made of physiological saline solution, and temperature maintained at 37°C. The other end of the atria was connected to a force transducer, and isometric contractions and beating rate of the right atria were recorded by COULBOURN AT-High-Speed VideoFigure. […] Cumulative administration interval was when the previous concentration reached its greatest effect, the next concentration would be immediately given.

[4] = system: normotensive rats; test: Heart rate and blood pressure in living (anaesthetized) rat, intravenous injection; assay type: in vivo, Wistar rats; conditions: lmg/kg; via femoral vein, rats
From the text: Male Wistar rats, weighing 200 ∼ 300g were abdominal anaesthetized with pentobarbital sodium. Tracheal was cannulated to maintain normal respiration. Polyethylene tube was inserted into the left femoral vein to facilitate drug administration. A 3-way stopcock was used, with one end connected to a syringe for drug injection, while the other end was connected to the syringe filled with physiological saline. The latter was used to prevent residual drugs in the polyethylene tube after injection, which would affect experimental accuracy.
The right femoral artery was also inserted with polyethylene, and a 3-way stopcock was used tool, where one end was connected to heparin solution to prevent embolism. The other end was connected to a Disposable Diaphragm Dome, TA1019, and linked to a transducer. Through an amplifier, a recorder recorded the overall and average arterial pressure; heart rate to evaluate the effect of drug on blood pressure and heart rate.

[5] = system: Wistar rat's isolated thoracic aorta; test: Isolated thoracic aorta contraction caused by 75mM KCl
Protocol: After sacrificing Wistar rat of weight between 300 - 500 gm, the thoracic aorta was immediately removed and placed in cold Kreb's solution. The fatty connecting tissue surrounding the vessel wall was removed and the thoracic aorta was cut into rings of length 5 mm. The two ends of each ring was pieced and fixed with "Z" shaped platinum wires. […] When the results had been recorded for at least 35 minutes, the aorta was repeatedly rinsed with normal Kreb's solution. […] 30 minutes later, 75mM KCl was added again to induce vasoconstriction.

[6] = 10^-8M, thoracic aorta contraction caused by 75mM KCl

Row | Compound | Lowering of Blood Pressure [4] | Reduction of Heart Rate [4] | Aorta Relaxation [5, 6] | also measured
1 | CC(C)NCC(O)COc1ccc(CC(N)=O)cc1 (stereo not shown) [ATENOLOL] | – | – | – | atrial blocking effect ([1]; 3x10-4M): almost does not have atrial blocking effect
2 | CC(C)NC[C@H](O)c1ccc(O)c(O)c1 [L-isoproterenol] | – | – | – | tracheal relaxation effect [2]: dose-dependant tracheal relaxation effect
3 | CC(C)NCC(O)COc1cccc2ccccc12 (stereo not shown) [PROPRANOLOL] | – | – | – | direct effect on atrial tissue ([1]; 10^-4∼10^-3 M): could inactivate or unexcited the tissue; direct effect on right atrium beating rate and left atrium isometric contractions ([1]; cumulative administration, reserpine pretreated): could retard the beating rate and isometric contractions; tracheal relaxation effect [2]: did not produce any relaxation effect
4 | COc1cc(C=O)ccc1OCC(O)CNC(C)(C)C (stereo not shown) [VANIDILOL, reference compound] | – | – | – | selectivity ratio of β1 type adrenoceptor (effect on right atrium relative to tracheal) [3]: 0.98 X; tracheal relaxation effect [2]: dose-dependant tracheal relaxation effect
5 | COC(=O)C1=C(C)NC(C)=C(C(=O)OC)C1c1ccc(OCC(O)CNCCOc2ccccc2OC)c(OC)c1 (stereo not shown) [compound 2, 4-{{N-{4-[2-hydroxy-3-(2-methoxy-1-oxyethyl-aminobenzene)propoxy]-3-methoxy}phenyl}}-2,6-dimethyl-3,5-dicarbo-methoxy-1,4-dihydropyridine] | 75± 2 mm Hg | 35± 4 beats/min | 40± 4% | –
6 | CCOC(=O)C1=C(C)NC(C)=C(C(=O)OCC)C1c1ccc(OCC(O)CNCCOc2ccccc2OC)c(OC)c1 (stereo not shown) [compound 3, 4-{{N-{4-[2-hydroxy-3-(2-methoxy-1-oxyethyl-aminobenzene)propoxy]-3-methoxy}phenyl}}-2,6-dimethyl-3,5-dicarboethoxy-1,4-dihydropyridine] | 78± 5 mm Hg | 37± 5 beats/min | 41± 2% | –
7 | CCOC(=O)C1=C(C)NC(C)=C(C(=O)OCC)C1c1cc(Cl)ccc1OCC(O)CNC(C)(C)C (stereo not shown) [compound 4] | 76± 6 mm Hg | 33± 3 beats/min | 35± 5% | –
8 | CCCCNCC(O)COc1ccc(Cl)cc1C1C(C(=O)OCC)=C(C)NC(C)=C1C(=O)OCC (stereo not shown) [compound 5] | 74± 4 mm Hg | 32± 4 beats/min | 33± 2% | –
9 | CCOC(=O)C1=C(C)NC(C)=C(C(=O)OCC)C1c1cc(Cl)ccc1OCC(O)CNCCOc1ccccc1OC (stereo not shown) [compound 6] | 80± 3 mm Hg | 35± 5 beats/min | – | Aorta Relaxation [5]: 45± 4%
10 | CCOC(=O)C1=C(C)NC(C)=C(C(=O)OCC)C1c1ccc(OCC(O)CNCCOc2ccccc2OC)c(Cl)c1 (stereo not shown) [compound 7, 4-{{N-{4-[2-hydroxy-3-(2-methoxy-1-oxyethylaminobenzene)propoxy]-3-choloro}phenyl}}-2,6-dimethyl-3,5-dicarbo-ethoxy-1,4-dihydropyridine] | 82± 6 mm Hg | 40± 2 beats/min | 45± 5% | –
11 | CCOC(=O)C1=C(C)NC(C)=C(C(=O)OCC)C1c1cc([N+](=O)[O-])ccc1OCC(O)CNC(C)(C)C (stereo not shown) [compound 8] | 80± 3 mm Hg | 40± 4 beats/min | 43± 3% | –
12 | CCOC(=O)C1=C(C)NC(C)=C(C(=O)OCC)C1c1cc([N+](=O)[O-])ccc1OCC(O)CNCCOc1ccccc1OC (stereo not shown) [compound 9] | 85± 6 mm Hg | 40± 5 beats/min | 47± 2% | –
